Laboratory results published in US20230255953A1, “USE OF ROLUPERIDONE IN PREVENTING RELAPSE IN SCHIZOPHRENIA PATIENTS” (Minerva Neurosciences, Inc., priority 2022, published 2023).

Test system: patients with negative symptoms of schizophrenia
Assay: Integrated analysis (pooled ITT): CGI-S and CGI-I
Assay type: in vivo, human
Conditions: for CGI-I Score, Difference (95% CI) in LS mean (vs placebo) / CGI-I Score, LS mean (SE) / CGI-I Score, Mean (SD) / CGI-I Score, Median / CGI-S Score change from Baseline, LS mean (SE) / CGI-S Score change from Baseline, Mean (SD) / CGI-S Score change from Baseline, Median / CGI-S Score, Difference (95% CI) in LS mean (vs placebo): DB; for CGI-I Score, Difference (95% CI) in LS mean (vs placebo) / CGI-I Score, LS mean (SE) / CGI-I Score, Mean (SD) / CGI-I Score, Median / CGI-S Score change from Baseline, LS mean (SE) / CGI-S Score change from Baseline, Mean (SD) / CGI-S Score change from Baseline, Median / CGI-S Score, Difference (95% CI) in LS mean (vs placebo) / CGI-I score, LS mean compared with placebo / CGI-S score, LS mean change from Baseline compared with placebo: pooled ITT; for Clinical Global Impression of Severity, Change from Baseline (LS Means [SEM]) / Clinical Global Impression of Improvement (LS Means [SEM]): ITT; for Clinical Global Impression of Improvement (LS Means [SEM]): observed data, MMRM with Baseline CGI-S as covariate
Text: The primary integrated analysis of the efficacy of Roluperidone compared with placebo for the treatment of negative symptoms of schizophrenia is based on the change from Baseline in the PANSS Marder's negative symptoms factor score (in this document referred to as NSFS) to Week 12. Efficacy is also supported by the analysis of change from Baseline in the PSP Total score and the CGI-S to Week 12.
The CGI-S is a clinician-rated scale that is designed to rate the severity of the patient's illness at the time of assessment, including knowledge of the patient's history, psychosocial circumstances, symptoms, behavior, and the impact of the symptoms on the patient's ability to function relative to the clinician's past experience with patients who have the same diagnosis and similar improvement with treatment. Considering total clinical experience, a patient is assessed on severity of mental illness at the time of rating, where 1=normal (not at all ill); 2=borderline mentally ill; 3=mildly ill; 4=moderately ill; 5=markedly ill; 6=severely ill; or 7=extremely ill.
The Efficacy data from Study Nos. 1 and 2 were pooled. The majority of patients in the pooled ITT population completed the DB period (502 patients overall, 66.3%), with similar rates in each treatment group (placebo: 69.8%, 32 mg Roluperidone: 65.3%, and 64 mg Roluperidone: 63.8%) (Table 12). The majority (62.7%) of those who completed the DB period entered the OL period. The most common reason for discontinuation during the DB period among patients overall was withdrawal of consent (15.6%), followed by adverse events (7.3%) and lack of efficacy (5.4%) (Table 12). […] Approximately twice as many patients in the Roluperidone groups (32 mg: 8.5%; 64 mg: 9.1%) discontinued due to adverse events compared with patients in the placebo group (4.3%). More patients in the placebo group discontinued due to lack of efficacy (6.7%) than in the Roluperidone groups (32 mg: 4.4%; 64 mg: 5.1%). The low number of patients who discontinued due to lack of efficacy or withdrawal of consent probably reflects a low level of worsening of positive symptoms.
The integrated analysis supporting the efficacy of Roluperidone as a treatment for the negative symptoms of schizophrenia in adults is presented below.

Substance: 1H-Isoindol-1-one,2-[ [1-[2-(4-fluorophenyl)-2-oxoethyl]-4-piperidinyl]methyl]-2,3-dihydro-, hydrochloride, hydrate (1:1:2) [Roluperidone]
- CGI-I Score, Difference (95% CI) in LS mean (vs placebo) (32 mg, Week 2): 0.0
- CGI-I Score, LS mean (SE) (32 mg, Week 2): 3.9 (0.05)
- CGI-I Score, Mean (SD) (32 mg, Week 2): 3.9 (0.68)
- CGI-I Score, Median (32 mg, Week 2): 4.0
- CGI-S Score change from Baseline, LS mean (SE) (32 mg, Week 2): −0.1 (0.04)
- CGI-S Score change from Baseline, Mean (SD) (32 mg, Week 2): −0.1 (0.47)
- CGI-S Score change from Baseline, Median (32 mg, Week 2): 0.0
- CGI-S Score, Difference (95% CI) in LS mean (vs placebo) (32 mg, Week 2): 0.0
- CGI-I Score, Difference (95% CI) in LS mean (vs placebo) (32 mg, Week 4): −0.2
- CGI-I Score, LS mean (SE) (32 mg, Week 4): 3.6 (0.05)
- CGI-I Score, Mean (SD) (32 mg, Week 4): 3.6 (0.76)
- CGI-I Score, Median (32 mg, Week 4): 4.0
- CGI-S Score change from Baseline, LS mean (SE) (32 mg, Week 4): −0.1 (0.03)
- CGI-S Score change from Baseline, Mean (SD) (32 mg, Week 4): −0.1 (0.50)
- CGI-S Score change from Baseline, Median (32 mg, Week 4): 0.0
- CGI-S Score, Difference (95% CI) in LS mean (vs placebo) (32 mg, Week 4): −0.1
- CGI-I Score, Difference (95% CI) in LS mean (vs placebo) (32 mg, Week 8): −0.1
- CGI-I Score, LS mean (SE) (32 mg, Week 8): 3.5 (0.06)
- CGI-I Score, Mean (SD) (32 mg, Week 8): 3.4 (0.80)
- CGI-I Score, Median (32 mg, Week 8): 3.0
- CGI-S Score change from Baseline, LS mean (SE) (32 mg, Week 8): −0.2 (0.04)
- CGI-S Score change from Baseline, Mean (SD) (32 mg, Week 8): −0.3 (0.58)
- CGI-S Score change from Baseline, Median (32 mg, Week 8): 0.0
- CGI-S Score, Difference (95% CI) in LS mean (vs placebo) (32 mg, Week 8): −0.1
- CGI-I Score, Difference (95% CI) in LS mean (vs placebo) (32 mg, Week 12): −0.0
- CGI-I Score, LS mean (SE) (32 mg, Week 12): 3.5 (0.07)
- CGI-I Score, Mean (SD) (32 mg, Week 12): 3.4 (0.82)
- CGI-I Score, Median (32 mg, Week 12): 3.0
- CGI-S Score change from Baseline, LS mean (SE) (32 mg, Week 12): −0.3 (0.05)
- CGI-S Score change from Baseline, Mean (SD) (32 mg, Week 12): −0.4 (0.65)
- CGI-S Score change from Baseline, Median (32 mg, Week 12): 0.0
- CGI-S Score, Difference (95% CI) in LS mean (vs placebo) (32 mg, Week 12): −0.1
- Clinical Global Impression of Severity, Change from Baseline (LS Means [SEM]) (32 mg, Week 12): −0.3 (0.05)
- Clinical Global Impression of Improvement (LS Means [SEM]) (32 mg, Week 12): 3.5 (0.07)
- CGI-I score, LS mean compared with placebo (32 mg, Week 12): −0.0
- CGI-S score, LS mean change from Baseline compared with placebo (32 mg, Week 12): −0.1
- CGI-I Score, Difference (95% CI) in LS mean (vs placebo) (64 mg, Week 2): 0.0
- CGI-I Score, LS mean (SE) (64 mg, Week 2): 3.8 (0.05)
- CGI-I Score, Mean (SD) (64 mg, Week 2): 3.8 (0.74)
- CGI-I Score, Median (64 mg, Week 2): 4.0
- CGI-S Score change from Baseline, LS mean (SE) (64 mg, Week 2): −0.1 (0.04)
- CGI-S Score change from Baseline, Mean (SD) (64 mg, Week 2): −0.1 (0.55)
- CGI-S Score change from Baseline, Median (64 mg, Week 2): 0.0
- CGI-S Score, Difference (95% CI) in LS mean (vs placebo) (64 mg, Week 2): −0.0
- CGI-I Score, Difference (95% CI) in LS mean (vs placebo) (64 mg, Week 4): −0.2
- CGI-I Score, LS mean (SE) (64 mg, Week 4): 3.6 (0.05)
- CGI-I Score, Mean (SD) (64 mg, Week 4): 3.5 (0.72)
- CGI-I Score, Median (64 mg, Week 4): 4.0
- CGI-S Score change from Baseline, LS mean (SE) (64 mg, Week 4): −0.2 (0.03)
- CGI-S Score change from Baseline, Mean (SD) (64 mg, Week 4): −0.3 (0.56)
- CGI-S Score change from Baseline, Median (64 mg, Week 4): 0.0
- CGI-S Score, Difference (95% CI) in LS mean (vs placebo) (64 mg, Week 4): −0.2
- CGI-I Score, Difference (95% CI) in LS mean (vs placebo) (64 mg, Week 8): −0.2
- CGI-I Score, LS mean (SE) (64 mg, Week 8): 3.4 (0.06)
- CGI-I Score, Mean (SD) (64 mg, Week 8): 3.4 (0.81)
- CGI-I Score, Median (64 mg, Week 8): 3.0
- CGI-S Score change from Baseline, LS mean (SE) (64 mg, Week 8): −0.3 (0.04)
- CGI-S Score change from Baseline, Mean (SD) (64 mg, Week 8): −0.3 (0.66)
- CGI-S Score change from Baseline, Median (64 mg, Week 8): 0.0
- CGI-S Score, Difference (95% CI) in LS mean (vs placebo) (64 mg, Week 8): −0.2
- CGI-I Score, Difference (95% CI) in LS mean (vs placebo) (64 mg, Week 12): −0.2
- CGI-I Score, LS mean (SE) (64 mg, Week 12): 3.4 (0.07)
- CGI-I Score, Mean (SD) (64 mg, Week 12): 3.3 (0.85)
- CGI-I Score, Median (64 mg, Week 12): 3.0
- CGI-S Score change from Baseline, LS mean (SE) (64 mg, Week 12): −0.4 (0.05)
- CGI-S Score change from Baseline, Mean (SD) (64 mg, Week 12): −0.4 (0.69)
- CGI-S Score change from Baseline, Median (64 mg, Week 12): 0.0
- CGI-S Score, Difference (95% CI) in LS mean (vs placebo) (64 mg, Week 12): −0.2
- Clinical Global Impression of Severity, Change from Baseline (LS Means [SEM]) (64 mg, Week 12): −0.4 (0.05)
- Clinical Global Impression of Improvement (LS Means [SEM]) (64 mg, Week 12): 3.4 (0.07)
- CGI-I score, LS mean compared with placebo (64 mg, Week 12): −0.2
- CGI-S score, LS mean change from Baseline compared with placebo (64 mg, Week 12): −0.2
- CGI-I Score, Mean (SD) (Roluperidone Total, Week 2): 3.9 (0.71)
- CGI-I Score, Median (Roluperidone Total, Week 2): 4.0
- CGI-S Score change from Baseline, Mean (SD) (Roluperidone Total, Week 2): −0.1 (0.51)
- CGI-S Score change from Baseline, Median (Roluperidone Total, Week 2): 0.0
- CGI-I Score, Mean (SD) (Roluperidone Total, Week 4): 3.6 (0.74)
- CGI-I Score, Median (Roluperidone Total, Week 4): 4.0
- CGI-S Score change from Baseline, Mean (SD) (Roluperidone Total, Week 4): −0.2 (0.54)
- CGI-S Score change from Baseline, Median (Roluperidone Total, Week 4): 0.0
- CGI-I Score, Mean (SD) (Roluperidone Total, Week 8): 3.4 (0.81)
- CGI-I Score, Median (Roluperidone Total, Week 8): 3.0
- CGI-S Score change from Baseline, Mean (SD) (Roluperidone Total, Week 8): −0.3 (0.62)
- CGI-S Score change from Baseline, Median (Roluperidone Total, Week 8): 0.0
- CGI-I Score, Mean (SD) (Roluperidone Total, Week 12): 3.3 (0.83)
- CGI-I Score, Median (Roluperidone Total, Week 12): 3.0
- CGI-S Score change from Baseline, Mean (SD) (Roluperidone Total, Week 12): −0.4 (0.67)
- CGI-S Score change from Baseline, Median (Roluperidone Total, Week 12): 0.0
